Values quoted from earlier work as cited in US12414928B2, “Viral inactivation spray and gargling formulation” (priority 2021, dated 2025).

Tests used:
enveloped virus = conditions: in vitro, pH 4.0
[1] = system: coronavirus disease 2019 (COVID-19)

SMILES	enveloped virus inactivation (enveloped virus) [logs reduction]	virus inactivation [1] [%]
N=C(N)NCCC[C@H](N)C(=O)O [L-Arginine]	5	–
Cl [Hydrochloric Acid]	–	100
